Series [1] concerns HIV-1 laboratory strain, NL4-3. The series is described as follows: MT-4 Cytoprotection Assay (protection from HIV-induced cytopathic effect, WST-1 readout). In kind it is cell-based. How it is done:
MT-4 Cytoprotection Assay
(§1) The HTLV-1 transformed T cell line, MT-4, is highly susceptible to HIV-1 infection. Anti-HIV-1 agents were evaluated in this target cell line by protection from the HIV-induced cytopathic effect. In this assay, viability of both HIV-1 and mock-infected cells was assessed in a […] assay that monitors the ability of metabolically-active cells to reduce the tetrazolium salt WST-1. Cytoprotection by antiviral compounds is indicated by the positive readout of increased WST-1 cleavage.
(§2) Briefly, exponentially growing MT-4 cells were mock-infected or batch-infected with the HIV-1 laboratory strain, NL4-3, at a multiplicity of infection of 0.0005. Following a two hour infection, the cells were washed to remove unbound virus and plated in the presence of increasing concentrations of compound. After four days incubation, cytoprotection in the infected cells and compound toxicity in mock-infected cells were analyzed using the WST-1 assay.
A general note: Damage to the host cells serves as the signal in cytopathic effect assays.

A short description of series [2]: Compound toxicity in mock-infected MT-4 cells (WST-1 assay). In kind it is cell-based. The settings on record: human, read-out: TC50 (concentration of compound that results in death of 50% of the host cells). As to the method:
as §1, §2

Series [3] in a line: Human Liver Microsome Assay (metabolic stability). The format is in vitro ADME. To be noted: human liver microsomes 0.5 mg/mL, test article 1 μM. As to the method: Human Liver Microsome Assay
The microsomal fraction of liver homogenates contains endoplasmic reticulum derived cytochrome P450 enzymes that constitute the major phase I drug metabolizing enzymes. Briefly, to aid prediction of the in vivo rate of clearance of a dosed test article, an in vitro incubation containing human liver microsomes (0.5 mg/mL final protein concentration) and test article (1 μM incubation concentration) in the presence and absence of the necessary cofactor NADPH (1 mM incubation concentration) is conducted. The incubation is performed in a buffered aqueous system (100 mM potassium phosphate, pH 7.4). The concentration of the parent compound is determined using liquid chromatography coupled with tandem mass spectrometry and reported as percent remaining from a zero minute concentrations.
A general note: Liver microsomes are a subcellular fraction often used to study metabolism.

For series [4], the system named is HIV-1 laboratory strain, NL4-3. The series is described as follows: MT-4 Cytoprotection Assay (protection from HIV-induced cytopathic effect, WST-1 readout). The format is cell-based. The settings on record: Human immunodeficiency virus 1, NL43; Table 6, printed in the MT4 IC50 column but marked MT4 assay.
Where [5] appears, read: Human immunodeficiency virus 1, NL43, MT4, 96 h, MT-4 cells, HIV-1 NL4-3, four days, read-out: EC50 (concentration of compound that reduces the virus induced cytopathic effect by 50% (MT-4)).
Setting [6] is: Human immunodeficiency virus 1, NL43, list of representative compounds, read-out: EC50 of less than about 100 nm (representative compounds).

The structures appear in SMILES notation. pEC50, pIC50: −log10 of the molar value. Read-outs that look alike come from different tables or passages of the source. Bounds are passed on as bounds.

Regarding `C=C(C)[C@@H]1CC[C@]2(C(=O)NCc3ccc(C(=O)O)cc3)CC[C@]3(C)[C@H](CC[C@@H]4[C@@]5(C)CC[C@H](OC(=O)CC(C)(C)C(=O)O)C(C)(C)[C@@H]5CC[C@]43C)[C@@H]12` [Compound 71], the pEC50 in series [1] (setting [5]) was around 6.90. Moreover, the CC50 at 4 days in series [2] is around 7700 nM.
As to `C=C(C)[C@@H]1CC[C@]2(C(=O)NCc3ccccc3C(=O)O)CC[C@]3(C)[C@H](CC[C@@H]4[C@@]5(C)CC[C@H](OC(=O)CC(C)(C)C(=O)O)C(C)(C)[C@@H]5CC[C@]43C)[C@@H]12` [Compound 73], the pEC50 is around 8.09 in series [1] (setting [5]) and above 7.00 in series [1] (setting [6]). In addition, the CC50 at 4 days in series [2] is around 6300 nM.
With `C=C(C)[C@@H]1CC[C@]2(C(=O)NCc3ccccn3)CC[C@]3(C)[C@H](CC[C@@H]4[C@@]5(C)CC[C@H](OC(=O)CC(C)(C)C(=O)O)C(C)(C)[C@@H]5CC[C@]43C)[C@@H]12` [Compound 83], the pEC50 in series [1] (setting [6]) was above 7.00. Further, the “Metabolic Stability in Human liver Microsomes % compound remaining at 40 minutes” value in series [3] (40 minutes) stood at 11%. Also, the half-life at 1 μM in series [3] (pH 7.4, read-out: Metabolic Stability in Human liver Microsomes T1/2) was below 10 min. Further, the pIC50 in series [4] was 8.34.
Take `C=C(C)[C@@H]1CC[C@]2(C(=O)NCCc3ccc(OC)cc3)CC[C@]3(C)[C@H](CC[C@@H]4[C@@]5(C)CC[C@H](OC(=O)CC(C)(C)C(=O)O)C(C)(C)[C@@H]5CC[C@]43C)[C@@H]12` [Compound 70]: the pEC50 in series [1] (setting [5]) was around 8.54; in series [1] (setting [6]), above 7.00. The CC50 at 4 days in series [2] is above 10000 nM.
For the molecule `C=C(C)[C@@H]1CC[C@]2(C(=O)NCc3ccncc3)CC[C@]3(C)[C@H](CC[C@@H]4[C@@]5(C)CC[C@H](O)C(C)(C)[C@@H]5CC[C@]43C)[C@@H]12` [Compound 46], the pEC50 in series [1] (setting [5]) was around 5.07. Besides, the CC50 at 4 days in series [2] is above 10000 nM.
In the case of `C=C(C)[C@@H]1CC[C@]2(C(=O)NCc3cccnc3)CC[C@]3(C)[C@H](CC[C@@H]4[C@@]5(C)CC[C@H](OC(=O)CC(C)(C)C(=O)O)C(C)(C)[C@@H]5CC[C@]43C)[C@@H]12` [Compound 76], the values for the pEC50 in series [1] (setting [5]) and in series [1] (setting [6]) were around 7.96 and above 7.00, respectively. Further, in series [2], the CC50 at 4 days was above 10000 nM.

For orientation: pIC50 means the IC50 on a negative log10 scale, so that one unit is a factor of ten.
